Experimental data as given in patent US20220380319A1 (Bial - R&D Investments, S.A., priority 2019, published 2022).
In brackets after ≈: the same amount, converted by molar mass.

Legend:
acid ceramidase = target: T1, acid ceramidase (Homo sapiens, UniProt Q13510); test: Acid ceramidase inhibition, biochemical fluorescent assay with cell lysates overexpressing acid ceramidase, substrate Rbm14-12; conditions: substrate Rbm14-12 6.3 μM, pH 4.5
T1 construct: Cell lysates overexpressing acid ceramidase were used as the enzyme source; expressed in transfected cells
T1 sequence (Q13510 22-395): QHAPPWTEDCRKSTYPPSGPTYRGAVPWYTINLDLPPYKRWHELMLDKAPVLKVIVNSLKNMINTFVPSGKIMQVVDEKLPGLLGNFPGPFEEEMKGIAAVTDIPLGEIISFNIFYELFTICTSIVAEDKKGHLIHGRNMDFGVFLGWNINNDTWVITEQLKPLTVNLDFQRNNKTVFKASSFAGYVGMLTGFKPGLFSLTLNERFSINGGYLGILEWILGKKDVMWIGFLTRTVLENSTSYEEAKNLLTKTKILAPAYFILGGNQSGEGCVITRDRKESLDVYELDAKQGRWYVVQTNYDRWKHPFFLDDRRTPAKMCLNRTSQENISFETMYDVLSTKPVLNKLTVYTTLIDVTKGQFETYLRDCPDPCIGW
In short: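 Lysate of cells overexpressing acid ceramidase (10 μg protein) preincubated with compound dose series 1 hr at RT in 25 mM NaAC, 100 mM NaCl, pH 4.5, then reacted 1 hr with 6.3 μM Rbm14-12. Stopped with NaIO4/glycine buffer pH 10.6, fluorescence ex360/em446; IC50 by four-parameter fit.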

[1] = Compound solubility in water

| SMILES | IC50 (acid ceramidase) [nM] | solubility [1] [µg/mL] |
| --- | --- | --- |
| CCOc1nc2ccc(N3CCOCC3)cc2n1C(=O)NCCCc1ccccc1 [Example 189b, 2-ethoxy-6-morpholino-N-(3-phenylpropyl)-1H-benzo[d]imidazole-1-carboxamide] | < 200 | 3 (≈ 7.34 µM) |
| COCCOc1nc2cc(N3CCOCC3)ccc2n1C(=O)NCCCc1ccccc1 [Example 190a, 2-(2-Methoxyethoxy)-5-morpholino-N-(3-phenylpropyl)-1H-benzo[d]imidazole-1 carboxamide] | < 200 | 17 (≈ 38.8 µM) |
| COCCOc1nc2ccc(N3CCOCC3)cc2n1C(=O)NCCCc1ccccc1 [Example 190b, 2-(2-methoxyethoxy)-6-morpholino-N-(3-phenylpropyl)-1H-benzo[d]imidazole-1-carboxamide] | < 200 | 16 (≈ 36.5 µM) |
| COCCOc1nc2ccccc2n1C(=O)NCCCc1ccccc1 [Example 191, 2-(2-Methoxyethoxy)-N-(3-phenylpropyl)-1H-benzo[d]imidazole-1-carboxamide] | < 200 | 4 (≈ 11.3 µM) |
| CN1CCN(c2cccc3c2ncn3C(=O)NCCCc2ccccc2)CC1 [Example 192, 4-(4-Methylpiperazin-1-yl)-N-(3-phenylpropyl)-1H-benzo[d]imidazole-1-carboxamide] | < 200 | 12 (≈ 31.8 µM) |
| COc1nc2cc(C3CCN(C)CC3)ccc2n1C(=O)NCC(C)C [Example 193, N-iso-Butyl-2-methoxy-5-(1-methylpiperidin-4-yl)-1H-benzo[d]imidazole-1-carboxamide] | > 1000 | 39 (≈ 113 µM) |
| COc1nc2cc(N3CCN(C)CC3)ccc2n1C(=O)NCCCc1ccccc1 [Example 194, 2-Methoxy-5-(4-methylpiperazin-1-yl)-N-(3-phenylpropyl)-1H-benzo[d]imidazole-1-carboxamide] | 200 to 1000 | 30 (≈ 73.6 µM) |
| COc1nc2cc(C3CCN(C)CC3)ccc2n1C(=O)NCCCc1ccccc1 [Example 195a, 2-Methoxy-5-(1-methylpiperidin-4-yl)-N-(3-phenylpropyl)-1H-benzo[d]imidazole-1-carboxamide] | > 1000 | 43 (≈ 106 µM) |
| COc1nc2ccc(C3CCN(C)CC3)cc2n1C(=O)NCCCc1ccccc1 [Example 195b, 2-methoxy-6-(1-methylpiperidin-4-yl)-N-(3-phenylpropyl)-1H-benzo[d]imidazole-1-carboxamide] | > 1000 | 39 (≈ 95.9 µM) |
| COc1nc2ccc(N3CCOCC3)cc2n1C(=O)NCCCc1nccs1 [Example 196, 2-Methoxy-6-morpholino-N-(3-(thiazol-2-yl)propyl)-1H-benzo[d]imidazole-1-carboxamide] | 200 to 1000 | 35 (≈ 87.2 µM) |
| CC(C)CCNC(=O)n1cnc2c(N3CCN(C)C(C)C3)cccc21 (stereo not shown) [Example 197, 4-(3,4-Dimethylpiperazin-1-yl)-N-iso-pentyl-1H-benzo[d]imidazole-1-carboxamide] | 200 to 1000 | 28 (≈ 81.5 µM) |
| O=C(NCCCc1ccccc1)n1cnc2c(N3CCC4(CC3)COC4)cccc21 [Example 216, N-(3-Phenylpropyl)-4-(2-oxa-7-azaspiro[3.5]nonan-7-yl)-1H-benzo[d]imidazole-1-carboxamide] | < 200 | 2.5 (≈ 6.18 µM) |
| O=C(NCCCCc1ccccc1)n1cnc2c(N3CCC4(CC3)COC4)cccc21 [Example 217, N-(4-Phenylbutyl)-4-(2-oxa-7-azaspiro[3.5]nonan-7-yl)-1H-benzo[d]imidazole-1-carboxamide] | < 200 | 0.6 (≈ 1.43 µM) |
| CC(C)CCNC(=O)n1cnc2c(N3[C@@H]4CC[C@H]3COC4)cccc21 [Example 220, 4-((1R,5S)-3-Oxa-8-azabicyclo[3.2.1]octan-8-yl)-N-isopentyl-1H-benzo[d]imidazole-1-carboxamide] | 200 to 1000 | 4 (≈ 11.7 µM) |

Further lines, results first:

| IC50 (acid ceramidase) [nM] | solubility [1] [µg/mL] | SMILES |
| --- | --- | --- |
| 200 to 1000 | 28 (≈ 75.8 µM) | CC(C)CCNC(=O)n1cnc2c(N3CCN4CCCCC4C3)cccc21 (stereo not shown) [Example 198, 4-(Hexahydro-1H-pyrido[1,2-a]pyrazin-2(6H)-yl)-N-iso-pentyl-1H-benzo[d]imidazole-1-carboxamide] |
| > 1000 | 31 (≈ 83.4 µM) | CC(C)CCNC(=O)n1cnc2c(N3CCN4CCOC[C@H]4C3)cccc21 [Example 199, (R)-4-(Hexahydropyrazino[2,1-c][1,4]oxazin-8(1H)-yl)-N-isopentyl-1H-benzo[d]imidazole-1-carboxamide] |
| 200 to 1000 | 30 (≈ 81.4 µM) | CC(C)CCNC(=O)n1cnc2c(N3CCN(CCC#N)CC3)cccc21 [Example 200, 4-(4-(2-Cyanoethyl)piperazin-1-yl)-N-iso-pentyl-1H-benzo[d]imidazole-1-carboxamide] |
| 200 to 1000 | 28 (≈ 77.5 µM) | CC(C)CCNC(=O)n1cnc2c(N3CCN(C)C(CF)C3)cccc21 (stereo not shown) [Example 201, 4-(3-(Fluoromethyl)-4-methylpiperazin-1-yl)-N-isopentyl-1H-benzo[d]imidazole-1-carboxamide] |
| 200 to 1000 | 15 (≈ 42 µM) | CCCN1CCN(c2cccc3c2ncn3C(=O)NCCC(C)C)CC1 [Example 202, N-iso-Pentyl-4-(4-propylpiperazin-1-yl)-1H-benzo[d]imidazole-1-carboxamide] |
| < 200 | 26 (≈ 72.7 µM) | CC(=O)N1CCN(c2cccc3c2ncn3C(=O)NCCC(C)C)CC1 [Example 203, 4-(4-Acetylpiperazin-1-yl)-N-isopentyl-1H-benzo[d]imidazole-1-carboxamide] |
| 200 to 1000 | 36 (≈ 93.6 µM) | CC(C)CCNC(=O)n1cnc2c(N3CCN(C4CN(C)C4)CC3)cccc21 [Example 204, N-iso-Pentyl-4-(4-(1-methylazetidin-3-yl)-piperazin-1-yl)-1H-benzo[d]imidazole-1-carboxamide] |
| 200 to 1000 | 31 (≈ 80.6 µM) | CC(C)CCNC(=O)n1cnc2c(N3CC(N4CCN(C)CC4)C3)cccc21 [Example 205, N-iso-Pentyl-4-(3-(4-methylpiperazin-1-yl)-azetidine-1-yl)-1H-benzo[d]imidazole-1-carboxamide] |
| 200 to 1000 | 20 (≈ 54.1 µM) | CC(C)CCNC(=O)n1cnc2c(N3CCN(C4CC4)C(=O)C3)cccc21 [Example 206, 4-(4-Cyclopropyl-3-oxopiperazin-1-yl)-N-isopentyl-1H-benzo[d]imidazole-1-carboxamide] |
| 200 to 1000 | 32 (≈ 89.5 µM) | CC(C)CCNC(=O)n1cnc2c(N3CCN(C(C)C)CC3)cccc21 [Example 207, N-iso-Pentyl-4-(4-isopropylpiperazin-1-yl)-1H-benzo[d]imidazole-1-carboxamide] |
| 200 to 1000 | 31 (≈ 90.3 µM) | CCN1CCN(c2cccc3c2ncn3C(=O)NCCC(C)C)CC1 [Example 208] |
| 200 to 1000 | 24 (≈ 65 µM) | CC(C)CCNC(=O)n1cnc2c(N3CCN4C(=O)CCC4C3)cccc21 (stereo not shown) [Example 209, N-iso-Pentyl-4-(6-oxohexahydropyrrolo[1,2-a]pyrazin-2(1H)-yl)-1H-benzo[d]imidazole-1-carboxamide] |
| < 200 | 12 (≈ 31.2 µM) | COc1nc2c(N3CCN(C)CC3)cc(C#N)cc2n1C(=O)NCCC(C)C [Example 210, 6-Cyano-N-iso-pentyl-2-methoxy-4-(4-methylpiperazin-1-yl)-1H-benzo[d]imidazole-1-carboxamide] |
| < 200 | 26 (≈ 74.8 µM) | COc1nc2c(N3CCOCC3)cncc2n1C(=O)NCCC(C)C [Example 211, N-iso-Pentyl-2-methoxy-7-morpholino-3H-imidazo[4,5-c]pyridine-3-carboxamide] |
| 200 to 1000 | 8 (≈ 22 µM) | COc1nc2c(N3CCOCC3)cc(F)cc2n1C(=O)NCCC(C)C [Example 212, 6-Fluoro-N-iso-pentyl-2-methoxy-4-morpholino-1H-benzo[d]imidazole-1-carboxamide] |
| < 200 | 9 (≈ 22.8 µM) | COc1nc2cnc(N3CCOCC3)cc2n1C(=O)NCCCc1ccccc1 [Example 213a, 2-Methoxy-6-morpholino-N-(3-phenylpropyl)-1H-imidazo[4,5-c]pyridine-1-carboxamide] |
| < 200 | 0.3 (≈ 0.703 µM) | COc1nc2cc(F)c(N3CCOCC3)cc2n1C(=O)NCCCCc1ccccc1 [Example 214, 5-Fluoro-2-methoxy-6-morpholino-N-(4-phenylbutyl)-1H-benzo[d]imidazole-1-carboxamide] |
| < 200 | 0.3 (≈ 0.703 µM) | COc1nc2cc(N3CCOCC3)c(F)cc2n1C(=O)NCCCCc1ccccc1 [Example 215, 6-Fluoro-2-methoxy-5-morpholino-N-(4-phenylbutyl)-1H-benzo[d]imidazole-1-carboxamide] |
| < 200 | 24 (≈ 59.2 µM) | CC(=O)N1CCN(c2cccc3c2ncn3C(=O)NCCCc2ccccc2)CC1 [Example 218, 4-(4-Acetylpiperazin-1-yl)-N-(3-phenylpropyl)-1H-benzo[d]imidazole-1-carboxamide] |
| < 200 | 0.5 (≈ 1.27 µM) | C[C@@H]1CN(c2cccc3c2ncn3C(=O)NCCCc2ccccc2)C[C@H](C)O1 [Example 219, 4-((2S,6R)-2,6-Dimethylmorpholino)-N-(3-phenylpropyl)-1H-benzo[d]imidazole-1-carboxamide] |
| 200 to 1000 | 5 (≈ 14.6 µM) | CC(C)CCNC(=O)n1cnc2c(N3CC4CCC(C3)O4)cccc21 [Example 221, 4-(8-Oxa-3-azabicyclo[3.2.1]octan-3-yl)-N-isopentyl-1H-benzo[d]imidazole-1-carboxamide] |
